Laboratory results taken from patent US9937165B2, “Pharmacological chaperones for treating obesity” (Amicus Therapeutics, Inc., priority 2005, dated 2018).
“And” between values parts separate entries of the source, which are not always exact repeats. Equal values may be shown once.

Tests used:
MC4R = MC4R (Homo sapiens, UniProt P32245); conditions: cited from earlier work
[1] = target: T1, α-Galactosidase A (α-Gal A) (Homo sapiens, UniProt P06280); parameters: host or cells: normal lymphoblasts (endogenous enzyme); conditions: normal lymphoblasts cultured in vitro with DGJ; cited from earlier work
T1 sequence (P06280 32-429): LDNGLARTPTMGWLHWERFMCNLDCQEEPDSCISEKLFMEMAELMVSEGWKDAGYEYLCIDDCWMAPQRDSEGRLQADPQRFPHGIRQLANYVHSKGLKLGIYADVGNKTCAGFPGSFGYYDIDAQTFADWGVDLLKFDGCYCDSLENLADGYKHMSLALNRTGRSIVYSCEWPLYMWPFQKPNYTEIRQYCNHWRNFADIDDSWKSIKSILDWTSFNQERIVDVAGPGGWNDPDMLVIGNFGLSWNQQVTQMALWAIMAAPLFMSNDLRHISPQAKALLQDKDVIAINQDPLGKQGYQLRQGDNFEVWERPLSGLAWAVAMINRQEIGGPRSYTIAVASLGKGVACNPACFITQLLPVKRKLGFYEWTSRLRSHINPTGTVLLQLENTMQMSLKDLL

[2] = Phase I study of DGJ, pharmacokinetics in plasma and urine; format: in vivo, human
Protocol: (§1) Subjects were housed in the treatment facility from 14 hours prior to dosing until 24 hours after dosing. Meals were controlled by schedule and subjects remained abulatory for 4 hours post drug administration.
Blood samples (10 mL each) were collected in blood collection tubes containing EDTA before dosing and at the following times thereafter: 0.25, 0.5, 0.75, 1, 1.5, 2, 3, 4, 5, 6, 7, 8, 9, 10, 11 and 12 hours. Blood samples were cooled in an ice bath and centrifuged under refrigeration as soon as possible. Plasma samples were divided into two aliquots and stored at […]. pending assay. At the end of the study, all samples were transferred to MDS Pharma Services Analytical Laboratories (Lincoln) for analysis.
Pharmacokinetic parameters were summarised by treatment group using descriptive statistics (arithmetic means, standard deviations, coefficients of variation, sample size, minimum, maximum and median).

[3] = Phase I study of DGJ, safety and tolerability; format: in vivo, human
Protocol: as §1
Safety was determined by evaluating vital signs, laboratory parameters (serum chemistry, hematology, and urinalysis), ECGs, physical examination and by recording adverse events during the Treatment Period.
Safety data including laboratory evaluations, physical exams, adverse events, ECG monitoring and vital signs assessments were summarized by treatment group and point of time of collection. Descriptive statistics (arithmetic mean, standard deviation, median, minimum and maximum) were calculated for quantitative safety data as well as for the difference to baseline. Frequency counts were compiled for classification of qualitative safety data.
Adverse events were coded using the MedDRA version 7.0 dictionary and summarized by treatment for the number of subjects reporting the adverse event and the number of adverse events reported. A by-subject adverse event data listing including verbatim term, coded term, treatment group, severity, and relationship to treatment was provided. Concomitant medications and medical history were listed by treatment.

[4] = target: T1, α-Galactosidase A (α-Gal A); assay: Phase I study of DGJ, WBC α-Gal A enzymatic activity; format: in vivo; parameters: α-Gal A activity was calculated in white blood cells (WBC) before dosing began; endogenous in cells
Protocol: as §1
Blood samples (10 mL each) were collected in blood collection tubes containing EDTA and WBC extracted before dosing and at the following times thereafter: 100 hours, 150 hours, and 336 hours. Samples were treated as described above, and WBC α-Gal A enzymatic activity levels were determined.

MC4R, sequence (P32245 whole entry): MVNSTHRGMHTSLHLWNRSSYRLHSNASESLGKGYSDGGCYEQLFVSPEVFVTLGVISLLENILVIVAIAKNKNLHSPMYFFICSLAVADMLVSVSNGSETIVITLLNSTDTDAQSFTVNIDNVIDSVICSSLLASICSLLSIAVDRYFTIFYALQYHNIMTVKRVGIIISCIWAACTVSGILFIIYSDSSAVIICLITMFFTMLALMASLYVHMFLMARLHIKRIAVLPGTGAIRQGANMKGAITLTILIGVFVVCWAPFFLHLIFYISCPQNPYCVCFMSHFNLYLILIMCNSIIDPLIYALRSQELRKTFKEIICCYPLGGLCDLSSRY

O=C(N[C@H](Cc1ccc(Cl)cc1)C(=O)N1CCN(c2ccccc2CN2CCCC2)CC1)[C@H]1Cc2ccccc2CN1 [Compound 2]
EC50 (MC4R): 0.039 µM

OC[C@H]1NC[C@H](O)[C@@H](O)[C@H]1O [DGJ, 1-deoxygalactonojirimycin]
increase of α-Gal A activity [1]: 30%
tmax ([2]; 50 mg b.i.d. oral, Day 1): 2.9 ± 0.4 h
t½ ([2]; 50 mg b.i.d. oral, Day 1): 2.5 h
12 h cumulative renal excretion ([2]; 50 mg b.i.d. oral, Day 1, 12-hour post dose period): 16% and 16 ± 6%
Cmax ([2]; 50 mg b.i.d. oral, Day 1, plasma): 2.3 ± 0.3 µM
Cmin ([2]; 50 mg b.i.d. oral, Day 7): 0.4 ± 0.03 µM
tmax ([2]; 50 mg b.i.d. oral, Day 7): 2.5 ± 0.4 h
12 h cumulative renal excretion ([2]; 50 mg b.i.d. oral, Day 7, 12-hour post dose period): 48% and 48 ± 7%
Cmax ([2]; 50 mg b.i.d. oral, Day 7, plasma): 39 ± 0.5 µM
tmax ([2]; 150 mg b.i.d. oral, Day 1): 3.1 ± 0.4 h
t½ ([2]; 150 mg b.i.d. oral, Day 1): 2.4 h
12 h cumulative renal excretion ([2]; 150 mg b.i.d. oral, Day 1, 12-hour post dose period): 42% and 42 ± 7%
Cmax ([2]; 150 mg b.i.d. oral, Day 1, plasma): 11.3 ± 1.5 µM
Cmin ([2]; 150 mg b.i.d. oral, Day 7): 1.2 ± 0.1 µM
tmax ([2]; 150 mg b.i.d. oral, Day 7): 2.9 ± 0.4 h
12 h cumulative renal excretion ([2]; 150 mg b.i.d. oral, Day 7, 12-hour post dose period): 60% and 60 ± 5%
Cmax ([2]; 150 mg b.i.d. oral, Day 7, plasma): 10.8 ± 1.4 µM
time of peak concentrations, on average ([2]; all dose levels): approximately 3 hours
dose dependence of Cmax ([2]; doses increased from 50 mg to 150 mg): increased in a dose-proportional manner
safety and tolerability ([3]; 50 mg b.i.d. and 150 mg b.i.d., healthy male subjects): safe and well tolerated
adverse events (AEs) ([3]; 50 mg b.i.d. or 150 mg b.i.d., healthy male subjects): no subject presented with AEs
vital sign, ECG, or physical examination parameter ([3]; throughout the study): No clinically relevant abnormality
inhibition of WBC α-Gal A enzymatic activity ([4]; 50 mg b.i.d. or 150 mg b.i.d.): did not inhibit
WBC α-Gal A enzymatic activity, % pre-dose levels ([4]; 50 mg b.i.d., 150 hours): 130%
WBC α-Gal A enzymatic activity, % pre-dose levels ([4]; 50 mg b.i.d., 336 hours): 145%
WBC α-Gal A enzymatic activity, % pre-dose levels ([4]; 150 mg b.i.d., 100 hours): 150%
WBC α-Gal A enzymatic activity, % pre-dose levels ([4]; 150 mg b.i.d., 150 hours): 185%
WBC α-Gal A enzymatic activity, % pre-dose levels ([4]; 150 mg b.i.d., 336 hours): 185%
